Several values for one entry are separate records, joined by “and”; a condition that tells them apart may be missing. Identical values can stand only once. Entries after “also recorded” stand apart in the source; their conditions may differ. Counter-ions that a name gives are not always drawn. Like-named read-outs stand apart in the source and are kept apart here.
Experiments:
A. baumannii isolates = assay: Susceptibility of A. baumannii isolates by broth microdilution (CLSI methodology); type: cell-based; settings: for MIC: Acinetobacter baumannii
Protocol: Susceptibility of the A. baumannii isolates to each of the agents was determined by broth microdilution using Clinical and Laboratory Standards Institute (CLSI) methodology at a central laboratory. […] The susceptibility of A. baumannii to other drugs was interpreted according to the standard procedures as defiend by CLSI (Clinical and Laboratory Standards Institute Test Procedures MO2-A10, Vol. 29, No. 1; M07-A8, Vol. 29, No. 2 and/or M100-S19, Vol. 29, No. 3; Jan. 2009).

A. baumannii [1] = settings: MICs as high as 16 μg/mL; doripenem 1 gram over a 4 hour infusion; cited from earlier work
A. baumannii [2] = assay: Clinical and microbiological outcome at test of cure visit in subjects with nosocomial pneumonia, 3 clinical studies of doripenem; type: in vivo, human
Protocol: Each group received treatment of either doripenem alone or doripenem with concomitant therapy, as noted.
True concomitant therapy was determined by applying the following algorithm: treatment with the second antimicrobial was initiated during Study Days 1-14 and administered on the same study days as doripenem. In addition, the second antimicrobial was given for >1 day of the overlapping period. Concomitant therapy was assessed for the following antimicrobial agents: the fluoroquinolones ciprofloxacin and levofloxacin, colistin and the aminoglycosides amakacin and tobramycin.
Doripenem was administered at either 500 mg Q8H as a 1 hour infusion, 500 mg Q8H as a 4 hour infusion or 1g Q8H as a 4 hour infusion, depending on the specific clinical study, as noted in the Tables below.

[3] = isolate of each patient, doripenem + amikacin group
[4] = A. baumannii isolate of each patient, doripenem monotherapy group, monohydrate
[5] = isolate of each patient, doripenem + amikacin group, monohydrate
[6] = isolate of each patient, doripenem + colistin group, monohydrate
[7] = isolate of each patient, doripenem + fluoroquinolone group
[8] = isolate of each patient, doripenem + tobramycin group, monohydrate
[9] = per patient, test of cure visit, doripenem 1 gram or 500 mg every 8 hours, listed as Doripenem Monotherapy, monohydrate
[10] = whole treatment group, test of cure
[11] = isolate of each patient, doripenem + tobramycin group
[12] = isolate of each patient, doripenem + colistin group

Question: What does the source list for `NCC[C@H](O)C(=O)N[C@@H]1C[C@H](N)[C@@H](O[C@H]2O[C@H](CN)[C@@H](O)[C@H](O)[C@H]2O)[C@H](O)[C@H]1O[C@H]1O[C@H](CO)[C@@H](O)[C@H](N)[C@H]1O` [Amikacin, amikacin]?
Answer: Amikacin MIC (A. baumannii isolates; [3]): >64 μg/mL (5×) and 4 μg/mL and 1 μg/mL (2×) and 2 μg/mL; Amikacin susceptibility (A. baumannii isolates; [3]): (NS) (Non-susceptible (NS) ≧32 μg/mL); also recorded: (S) (Amikacin: Susceptible (S) ≦16 μg/mL)

Question: For `C[C@@H](O)[C@H]1C(=O)N2C(C(=O)O)=C(S[C@@H]3CN[C@H](CNS(N)(=O)=O)C3)[C@H](C)[C@H]12` [Doripenem, doripenem monohydrate], which “treatment of pneumonia due to A. baumannii” value (A. baumannii [1]) is on record?
Answer: The value was “effectively treated”.

Question: What about the “Doripenem MIC” value (A. baumannii isolates; [4]) of the same compound?
Answer: The value was 0.25 μg/mL (2×) and 0.12 μg/mL (2×) and 0.5 μg/mL (2×) and >128 μg/mL and 8 μg/mL and 1 μg/mL.

Question: What about the Doripenem susceptibility (A. baumannii isolates; [4]) of the same compound?
Answer: The Doripenem susceptibility was “(S) (Susceptible (S) ≦1 μg/mL); also recorded: (NS) (Non-susceptible (NS) >2 μg/mL)”.

Question: And the MIC (A. baumannii isolates; isolate of each patient, doripenem + fluoroquinolone group, read-out: Doripenem MIC)?
Answer: Its MIC is over 32 µg/mL.

Question: What about the “Doripenem MIC” value (A. baumannii isolates; [5]) of the same compound?
Answer: Its value is 64 μg/mL (2×) and 1 μg/mL (2×) and 0.25 μg/mL and 0.12 μg/mL and >32 μg/mL and 16 μg/mL.

Question: What about the Doripenem susceptibility (A. baumannii isolates; [5]) of the same compound?
Answer: The Doripenem susceptibility was “(NS) (Non-susceptible (NS) >2 μg/mL); also recorded: (S) (Susceptible (S) ≦1 μg/mL)”.

Question: What about the “Doripenem MIC” value (A. baumannii isolates; [6]) of the same compound?
Answer: Its value is >32 µg/mL and 32 µg/mL and 1 µg/mL.

Question: And the Doripenem susceptibility (A. baumannii isolates; [6])?
Answer: The Doripenem susceptibility was “(NS) (Non-susceptible (NS) >2 μg/mL); also recorded: (S) (Susceptible (S) ≦1 μg/mL)”.

Question: What about the Doripenem susceptibility (A. baumannii isolates; [7]) of the same compound?
Answer: Its Doripenem susceptibility is “(NS) (Non-susceptible (NS) >2 μg/mL)”.

Question: What about the “Doripenem MIC” value (A. baumannii isolates; isolate of each patient, doripenem + fluoroquinolone group, monohydrate) of the same compound?
Answer: The value was 32 µg/mL and 16 µg/mL and >32 µg/mL.

Question: What about the “Doripenem MIC” value (A. baumannii isolates; [8]) of the same compound?
Answer: The value was 0.12 μg/mL (3×) and >32 μg/mL and 1 μg/mL and 0.25 μg/mL.

Question: What about the Doripenem susceptibility (A. baumannii isolates; [8]) of the same compound?
Answer: Its Doripenem susceptibility is “(S) (Susceptible (S) ≦1 μg/mL); also recorded: (NS) (Non-susceptible (NS) >2 μg/mL)”.

Question: And the treatment effect (A. baumannii [2]; nosocomial pneumonia due to doripenem-susceptible A. baumannii)?
Answer: Its treatment effect is “effective”.

Question: And the “Clinical Outcome” value (A. baumannii [2]; [9])?
Answer: Its value is “Cure (7×) and Failure (2×)”.

Question: What about the “Microbiological Outcome” value (A. baumannii [2]; [9]) of the same compound?
Answer: Its value is “Eradicated; also recorded: Persisted”.

Question: And the positive outcome (A. baumannii [2]; [10])?
Answer: The positive outcome was 77.8%.

Question: What about the “positive outcome (patients with positive outcome / patients in group)” value (A. baumannii [2]; [10]) of the same compound?
Answer: The value was 7/9.

Question: For `C[C@H]1COc2c(N3CCN(C)CC3)c(F)cc3c(=O)c(C(=O)O)cn1c23` [Levofloxacin, levofloxacin], which MIC (A. baumannii isolates; isolate of each patient, doripenem + fluoroquinolone group, read-out: Fluoroquinolone MIC) is on record?
Answer: Its MIC is over 4 µg/mL.

Question: What about the “Fluoroquinolone MIC” value (A. baumannii isolates; [7]) of the same compound?
Answer: Its value is over 4 µg/mL.

Question: What about the Levofloxacin susceptibility (A. baumannii isolates; [7]) of the same compound?
Answer: Its Levofloxacin susceptibility is “(NS) (Non-susceptible (NS) ≧4 μg/mL)”.

Question: With `NC[C@H]1O[C@H](O[C@H]2[C@H](O)[C@@H](O[C@H]3O[C@H](CO)[C@@H](O)[C@H](N)[C@H]3O)[C@H](N)C[C@@H]2N)[C@H](N)C[C@@H]1O` [Tobramycin, tobranycin sulfate] as the compound, how does the “Tobramycin MIC” value (A. baumannii isolates; [11]) read?
Answer: Its value is 0.5 μg/mL (2×) and 4 μg/mL and 0.25 μg/mL.

Question: What about the Tobramycin susceptibility (A. baumannii isolates; [11]) of the same compound?
Answer: The Tobramycin susceptibility was “(S) (Tobramycin: Susceptible (S) ≦4 μg/mL)”.

Question: For colistin, which “Colistin MIC” value (A. baumannii isolates; [12]) is on record?
Answer: The value was 1 µg/mL.

Question: And the Colistin susceptibility (A. baumannii isolates; [12])?
Answer: Its Colistin susceptibility is “S (Colistin: Susceptible (S) ≦2 μg/mL)”.

From patent US20110281839A1, “COMBINATION THERAPY FOR THE TREATMENT OF BACTERIAL INFECTIONS” (priority 2010, published 2011)
